Test results published in US6903126B2, “1-Aryl-2-N-, S- or O-substituted benzimidazole derivatives, their use for the production of pharmaceutical agents as well as pharmaceutical preparations that contain these derivatives” (Schering AG, priority 2001, dated 2005).

Tested on: primary rat microglia
Experiment: Inhibition of microglia activation (Aβ-peptide stimulation, MTS reduction)
Assay type: cell-based
Details: Aβ-peptide-activated primary rat microglia, compound added day 5, MTS reduction on day 7, relative to DMSO control
Method: For in vitro production of Aβ-activated microglia, primary rat microglia with synthetic Aβ-peptide are incubated:
For simulation of Aβ deposits, synthetic Aβ peptide is dried on 96-hole tissue culture plates. A peptide stock solution is diluted by 2 mg/ml of H2O 1:50 in H2O. To coat the 96-hole plates, 30 μl of this dilute peptide solution/hole is used, and it is dried overnight at room temperature.
Primary rat microglia are harvested by mixed glia cultures, which were obtained from P3 rat brains. In the production of mixed glia cultures, the brains are taken from 3-day-old rats, and meninges are removed. The isolation of cells is achieved by trypsinization (0.25% trypsin solution, 15 minutes, 37° C.)). After undigested tissue fragments are separated with the aid of a 40 μm nylon mesh, the isolated cells are centrifuged off (800 rpm/10 minutes). The cell pellet is resuspended in the culture medium and moved into 100 ml tissue culture flasks (1 brain/tissue culture flask). […]
To quantify the microglia reactivity, the metabolic activity is measured on cultivation day 7 via the reduction of MTS (3-(4,5-dimethylthiazol-2-yl)-5-(3-carboxymethoxyphenyl)-2-(sulfophenyl)-2H-tetrazolium), Owen's reagent, Baltrop, J. A. et al. Bioorg. & Med. Chem. Lett., 1, 6111 (1991)). […]

Row | Structure (SMILES) | IC50 [nM]
1 | COC(=O)CCCCCOc1ccc2nc(N3CCOCC3)n(-c3ccccc3)c2c1 [Example 15, 6-[[2-(Morpholin-4-yl)-1-phenyl-1H-benzimidazol-6-yl]oxy]hexanoic acid methyl ester] | 870
2 | COC(=O)CCCCCOc1ccc2nc(S(=O)(=O)Cc3ccccc3)n(-c3ccc(C)cc3)c2c1 [Example 9, 6-[[1-(4-Methylphenyl)-2-(phenylmethanesulfonyl)-1H-benzimidazol-6-yl]oxy]hexanoic acid methyl ester] | 460
